According to patent publication US10273228B2, “Hepatitis B viral assembly effectors” (Indiana University Research and Technology Corporation, priority 2015, dated 2019):

Legend:
[1] = tested on: AD38 cells; assay: AD38 viability normalized to DMSO control; assay type: cell-based; settings: 10 μM compound, vs DMSO control; Table 6
Procedure: (§1) AD38 cells were then re-suspended with 10 mL of treatment medium and counted. Wells of a collagen coated 96-well NUNC microtiter plate were seeded at 50,000/well in 180 μL of treatment medium, and 20 μL of either 10% DMSO (Control) or a 10× solution of test compound in 10% DMSO in treatment media was added for a final compound concentration 1, 3, or 10 μM (1.0% final [DMSO]) and plates were incubated for 6 days at 37° C.

[2] = tested on: HBV viral load, AD38 cells; assay: Activity of test compounds on viral production from AD38 cells (viral load by quantitative PCR of the core sequence in supernatant); assay type: cell-based, Hepatitis B virus; settings: Hepatitis B virus, 144 h, 10 μM compound, 6 days at 37° C., vs DMSO control wells; Table 6; read-out: AD38 Viral Load (CpAM/DMSO %) at 10 μM
Procedure: as §1
Subsequently viral load production was assayed by quantitative PCR of the core sequence. Briefly, 5 μL of clarified supernatant was added to a PCR reaction mixture that contained forward primers HBV-f 5′-CTGTGCCTTGGGTGGCTTT-3′, Reverse primers HBV-r 5′-[…]-3′ and Fluorescent TaqMan™ Probes HBV-probe 5′-FAM/AGCTCCAAA/ZEN/[…]/3IABkFQ-3′ in Quanta Biosciences PerfeCTa® qPCR Toughmix®, and was subsequently on an Applied Biosystems VIIA7 in a final volume of 20 μL. The PCR mixture was incubated at 45° C. for 5 minutes, then 95° C. for 10 min, followed by 40 cycles of 10 seconds at 95° C. and 20 seconds at 60° C. Viral load was quantitated against known standards by using ViiA™ 7 Software. Viral load in the supernatant from wells with treated cells were compared against viral load in supernatant from DMSO control wells (≥3 per plate).

Structure (SMILES): COc1ccc(S(=O)(=O)N2CCN(c3nc(Nc4ccc(C)cc4)cc(N4CCCCC4=O)n3)CC2)cc1 [Compound 1213]
- AD38 Viability Normalized Result (CPAM/DMSO %) at 10 μM [1]: 94%
- activity at 10 µM [2]: 40%

Structure (SMILES): COc1ccc(S(=O)(=O)N2CCN(c3nc(C)cc(Nc4ccccn4)n3)CC2)cc1 [Compound 1215]
- AD38 Viability Normalized Result (CPAM/DMSO %) at 10 μM [1]: 89%
- activity at 10 µM [2]: 93%

Structure (SMILES): COc1ccc(S(=O)(=O)N2CCN(c3nc(Nc4ccc(C)cc4)cc(-n4ccnc4)n3)CC2)cc1 [Compound 1229]
- AD38 Viability Normalized Result (CPAM/DMSO %) at 10 μM [1]: 92%
- activity at 10 µM [2]: 13%

Structure (SMILES): COc1ccc(S(=O)(=O)N2CCN(c3nc(Nc4ccc(C)cc4)cc(-n4cncn4)n3)CC2)cc1 [Compound 1230]
- AD38 Viability Normalized Result (CPAM/DMSO %) at 10 μM [1]: 95%
- activity at 10 µM [2]: 0%

Structure (SMILES): COc1ccc(S(=O)(=O)N2CCN(c3nc(Nc4ccc(C)cc4)cc(NC(C)C)n3)CC2)cc1 [Compound 1231]
- AD38 Viability Normalized Result (CPAM/DMSO %) at 10 μM [1]: 94%
- activity at 10 µM [2]: 45%

Structure (SMILES): COc1ccc(S(=O)(=O)N2CCN(c3nc(NCCO)cc(Nc4ccc(C)cc4)n3)CC2)cc1 [Compound 1232]
- AD38 Viability Normalized Result (CPAM/DMSO %) at 10 μM [1]: 96%
- activity at 10 µM [2]: 83%

Structure (SMILES): COc1ccc(S(=O)(=O)N2CCN(c3nc(C)cc(Nc4nccs4)n3)CC2)cc1 [Compound 1233]
- AD38 Viability Normalized Result (CPAM/DMSO %) at 10 μM [1]: 95%
- activity at 10 µM [2]: 87%

Structure (SMILES): COc1ccc(S(=O)(=O)N2CCN(c3nc(C)cc(Nc4cccnc4)n3)CC2)cc1 [Compound 1234]
- AD38 Viability Normalized Result (CPAM/DMSO %) at 10 μM [1]: 101%
- activity at 10 µM [2]: 82%

Structure (SMILES): Cc1ccc(Nc2cc(C)nc(N3CCN(S(=O)(=O)c4cn[nH]c4)CC3)n2)cc1 [Compound 1238]
- AD38 Viability Normalized Result (CPAM/DMSO %) at 10 μM [1]: 102%
- activity at 10 µM [2]: 26%

Structure (SMILES): COc1ccc(S(=O)(=O)N2CCN(c3nc(C)cc(Nc4ccncc4)n3)CC2)cc1 [Compound 1240]
- AD38 Viability Normalized Result (CPAM/DMSO %) at 10 μM [1]: 102%
- activity at 10 µM [2]: 46%

Structure (SMILES): COc1ccc(S(=O)(=O)N2CCN(c3nc(Nc4ccc(C)cc4)cc(N4CCSCC4)n3)CC2)cc1 [Compound 1241, 2-(4-((4-methoxyphenyl)sulfonyl)piperazin-1-yl)-6-thiomorpholino-N-(p-tolyl) pyrimidin-4-amine]
- AD38 Viability Normalized Result (CPAM/DMSO %) at 10 μM [1]: 98%
- activity at 10 µM [2]: 65%

Structure (SMILES): COc1ccc(S(=O)(=O)N2CCN(c3nc(Nc4ccc(C)cc4)cc(-c4nccs4)n3)CC2)cc1 [Compound 1242]
- AD38 Viability Normalized Result (CPAM/DMSO %) at 10 μM [1]: 103%
- activity at 10 µM [2]: 30%

Structure (SMILES): CNc1cc(Nc2ccc(C)cc2)nc(N2CCN(S(=O)(=O)c3ccc(OC)cc3)CC2)n1 [Compound 1243]
- AD38 Viability Normalized Result (CPAM/DMSO %) at 10 μM [1]: 109%
- activity at 10 µM [2]: 32%

Structure (SMILES): Cc1ccc(Nc2cc(C)nc(N3CCN(S(=O)(=O)c4ccc(N)nc4)CC3)n2)cc1 [Compound 1245]
- AD38 Viability Normalized Result (CPAM/DMSO %) at 10 μM [1]: 99%
- activity at 10 µM [2]: 70%

Structure (SMILES): COc1ccc(S(=O)(=O)N2CCN(c3nc(Nc4ccc(C)cc4)cc(-n4nccn4)n3)CC2)cc1 [Compound 1247]
- AD38 Viability Normalized Result (CPAM/DMSO %) at 10 μM [1]: 98%
- activity at 10 µM [2]: 6%

Structure (SMILES): COc1ccc(S(=O)(=O)N2CCN(c3nc(Nc4ccc(C)cc4)cc(N(C)C(C)C)n3)CC2)cc1 [Compound 1248]
- AD38 Viability Normalized Result (CPAM/DMSO %) at 10 μM [1]: 33%
- activity at 10 µM [2]: 8%

Structure (SMILES): COc1ccc(S(=O)(=O)N2CCN(c3nc(Nc4ccc(C)cc4)cc(NC(C)(C)C)n3)CC2)cc1 [Compound 1249]
- AD38 Viability Normalized Result (CPAM/DMSO %) at 10 μM [1]: 65%
- activity at 10 µM [2]: 31%

Structure (SMILES): COc1ccc(S(=O)(=O)N2CCN(c3nc(Nc4ccc(C)cc4)cc(-c4ccccn4)n3)CC2)cc1 [Compound 1250, 2-(4-((4-methoxyphenyl)sulfonyl)piperazin-1-yl)-6-(pyridin-2-yl)-N-(p-tolyl) pyrimidin-4-amine]
- AD38 Viability Normalized Result (CPAM/DMSO %) at 10 μM [1]: 101%
- activity at 10 µM [2]: 56%

Structure (SMILES): COc1ccc(S(=O)(=O)N2CCN(c3nc(NCCN(C)C)cc(Nc4ccc(C)cc4)n3)CC2)cc1 [Compound 1251]
- AD38 Viability Normalized Result (CPAM/DMSO %) at 10 μM [1]: 56%
- activity at 10 µM [2]: 60%

Structure (SMILES): Cc1ccc(Nc2cc(C)nc(N3CCN(S(=O)(=O)c4ccncc4)CC3)n2)cc1 [Compound 1258]
- AD38 Viability Normalized Result (CPAM/DMSO %) at 10 μM [1]: 105%
- activity at 10 µM [2]: 50%
